US9695155B2, “Herbicidal substituted pyrimidinyloxy benzene compounds” (E. I. DU PONT DE NEMOURS AND COMPANY, priority 2013, dated 2017)

Legend:
chickweed = experiment: Test C postemergence; assay type: in vivo, Stellaria media
Outline: (§1)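 Preemergence: seeds sown in a loam soil–sand blend and sprayed with test chemical in a non-phytotoxic solvent mixture containing surfactant. Postemergence: plants at 2 to 18 cm (1- to 4-leaf stage) in peat-based medium, treated with the same formulation. Greenhouse 13 to 15 days, then visual rating 0 (no effect) to 100 (complete control).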

giant foxtail [1] = experiment: Test A postemergence; assay type: in vivo, Setaria faberii; settings: 0 to 100 scale where 0 is no effect and 100 is complete control
Outline: (§2)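 Greenhouse pot test, loam/sand soil. Formulation: non-phytotoxic solvent mix plus surfactant. Pre: directed spray onto soil after sowing. Post: plants at 1–2 leaf, 2–10 cm. Rated visually vs untreated controls at ~10 d, 0 (no effect) to 100 (complete control).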

barnyardgrass [2] = experiment: Test A postemergence; assay type: in vivo, Echinochloa crus-galli; settings: 0 to 100 scale where 0 is no effect and 100 is complete control
Outline: as §2

barnyardgrass [3] = experiment: Test B flooded paddy test; assay type: in vivo, Echinochloa crus-galli; settings: Flood, 250 g ai/ha, 0 to 100 scale where 0 is no effect and 100 is complete control
Outline: (§3)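 Plants were grown to the 2-leaf stage, then pots were flooded to 3 cm above the soil and compounds were applied directly into the paddy water. That depth was held throughout, and after 13 to 15 days in the greenhouse injury was rated visually against controls on a 0–100 scale (0 no effect, 100 complete control).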

Heteranthera limosa = experiment: Test B flooded paddy test; assay type: in vivo; settings: Flood, 250 g ai/ha, 0 to 100 scale where 0 is no effect and 100 is complete control
Outline: as §3

morningglory = experiment: Test C postemergence; assay type: in vivo, Ipomoea coccinea
Outline: as §1

pigweed = experiment: Test C preemergence; assay type: in vivo, Amaranthus retroflexus
Outline: as §1

velvetleaf = experiment: Test C preemergence; assay type: in vivo, Abutilon theophrasti
Outline: as §1

galium = experiment: Test C postemergence; assay type: in vivo, Galium aparine
Outline: as §1

corn = experiment: Test A postemergence; assay type: in vivo, Zea mays; settings: 0 to 100 scale where 0 is no effect and 100 is complete control
Outline: as §2

wheat, winter = experiment: Test C preemergence; assay type: in vivo, Triticum aestivum
Outline: as §1

yellow nutsedge = experiment: Test C preemergence; assay type: in vivo, Cyperus esculentus
Outline: as §1

giant foxtail [4] = experiment: Test C preemergence; assay type: in vivo, Setaria faberii
Outline: as §1

[5] = 16 g ai/ha, postemergence, 0 is no effect, 100 is complete control
[6] = 125 g ai/ha, postemergence, visual rating, scale 0 to 100 (0 no effect, 100 complete control)
[7] = Postemergence, 62 g ai/ha, scale 0 to 100 (0 no effect, 100 complete control)
[8] = 16 g ai/ha, preemergence, scale 0 to 100 (0 no effect, 100 complete control)
[9] = 62 g ai/ha, preemergence, scale 0 (no effect) to 100 (complete control)
[10] = 125 g ai/ha, preemergence, scale 0 (no effect) to 100 (complete control)
[11] = Preemergence, 31 g ai/ha, scale 0 to 100, 0 no effect, 100 complete control

Structure (SMILES): Clc1cnc(Oc2cccc(Br)c2-n2cc(Br)nn2)nc1 [Compound 129]
- Plant response rating (0 to 100), Chickweed (chickweed; [5]): 50
- Plant response rating, Chickweed (chickweed; [6]): 55
- Plant response rating, Chickweed (chickweed; [7]): 70
- Foxtail, Giant plant response rating (giant foxtail [1]; 125 g ai/ha): 90
- Plant response rating, Foxtail, Giant (giant foxtail [1]; 500 g ai/ha): 100
- Barnyardgrass plant response rating (barnyardgrass [2]; 125 g ai/ha): 90
- Plant response rating, Barnyardgrass (barnyardgrass [2]; 500 g ai/ha): 90
- Plant response rating, Barnyardgrass (barnyardgrass [3]): 0
- Plant response rating, Ducksalad (Heteranthera limosa): 65
- Plant response rating (0 to 100), Morningglory (morningglory; [5]): 75
- Plant response rating, Morningglory (morningglory; [6]): 85
- Plant response rating, Morningglory (morningglory; [7]): 80
- Pigweed plant response rating (pigweed; [8]): 98
- Pigweed plant response rating (pigweed; [9]): 100
- Pigweed plant response rating (pigweed; [10]): 100
- Plant response rating, Pigweed (pigweed; [11]): 100
- Velvetleaf plant response rating (velvetleaf; [8]): 35
- Velvetleaf plant response rating (velvetleaf; [9]): 100
- Velvetleaf plant response rating (velvetleaf; [10]): 100
- Plant response rating, Velvetleaf (velvetleaf; [11]): 70
- Plant response rating (0 to 100), Galium (galium; [5]): 50
- Plant response rating, Galium (galium; [6]): 85
- Plant response rating, Galium (galium; [7]): 55
- Corn plant response rating (corn; 125 g ai/ha): 30
- Plant response rating, Corn (corn; 500 g ai/ha): 50
- Wheat plant response rating (wheat, winter; [8]): 0
- Wheat plant response rating (wheat, winter; [9]): 0
- Wheat plant response rating (wheat, winter; [10]): 15
- Plant response rating, Wheat (wheat, winter; [11]): 0
- Nutsedge, Yellow plant response rating (yellow nutsedge; [8]): 0
- Nutsedge, Yellow plant response rating (yellow nutsedge; [9]): 5
- Nutsedge, Yellow plant response rating (yellow nutsedge; [10]): 25
- Plant response rating, Nutsedge, Yellow (yellow nutsedge; [11]): 0
- Foxtail, Giant plant response rating (giant foxtail [4]; [8]): 0
- Foxtail, Giant plant response rating (giant foxtail [4]; [9]): 100
- Foxtail, Giant plant response rating (giant foxtail [4]; [10]): 100
- Plant response rating, Foxtail, Giant (giant foxtail [4]; [11]): 80

Structure (SMILES): FC(F)(F)Sc1cnn(-c2ccccc2Oc2ncc(Cl)cn2)c1 [Compound 132, 5-chloro-2-[2-[4-(trifluoromethylthio)-1H-pyrazol-1-yl]phenoxy]pyrimidine]
- pest or weed control at 16 g/ha (chickweed; Stellaria media, post-emergence, 16 g ai/ha, postemergence, 0 is no effect, 100 is complete control, read-out: Plant response rating (0 to 100), Chickweed): 10%
- pest or weed control at 125 g/ha (chickweed; Stellaria media, post-emergence, 125 g ai/ha, postemergence, visual rating, scale 0 to 100 (0 no effect, 100 complete control), read-out: Plant response rating, Chickweed): 40%
- pest or weed control at 62 g/ha (chickweed; Stellaria media, post-emergence, Postemergence, 62 g ai/ha, scale 0 to 100 (0 no effect, 100 complete control), read-out: Plant response rating, Chickweed): 30%
- pest or weed control at 125 g/ha (giant foxtail [1]; Setaria faberi, post-emergence, 240 h, 125 g ai/ha, read-out: Foxtail, Giant plant response rating): 60%
- pest or weed control at 500 g/ha (giant foxtail [1]; Setaria faberi, post-emergence, 240 h, 500 g ai/ha, read-out: Plant response rating, Foxtail, Giant): 90%
- pest or weed control at 125 g/ha (barnyardgrass [2]; Echinochloa crus-galli, post-emergence, 240 h, 125 g ai/ha, read-out: Barnyardgrass plant response rating): 50%
- pest or weed control at 500 g/ha (barnyardgrass [2]; Echinochloa crus-galli, post-emergence, 240 h, 500 g ai/ha, read-out: Plant response rating, Barnyardgrass): 70%
- pest or weed control at 250 g/ha (barnyardgrass [3]; Echinochloa crus-galli, read-out: Plant response rating, Barnyardgrass): 0%
- pest or weed control at 250 g/ha (Heteranthera limosa; Heteranthera limosa, read-out: Plant response rating, Ducksalad): 0%
- pest or weed control at 16 g/ha (morningglory; Ipomoea, post-emergence, 16 g ai/ha, postemergence, 0 is no effect, 100 is complete control, read-out: Plant response rating (0 to 100), Morningglory): 10%
- pest or weed control at 125 g/ha (morningglory; Ipomoea, post-emergence, 125 g ai/ha, postemergence, visual rating, scale 0 to 100 (0 no effect, 100 complete control), read-out: Plant response rating, Morningglory): 65%
- pest or weed control at 62 g/ha (morningglory; Ipomoea, post-emergence, Postemergence, 62 g ai/ha, scale 0 to 100 (0 no effect, 100 complete control), read-out: Plant response rating, Morningglory): 75%
- pest or weed control at 16 g/ha (pigweed; Amaranthus retroflexus, pre-emergence, 16 g ai/ha, preemergence, scale 0 to 100 (0 no effect, 100 complete control), read-out: Pigweed plant response rating): 30%
- pest or weed control at 62 g/ha (pigweed; Amaranthus retroflexus, pre-emergence, 62 g ai/ha, preemergence, scale 0 (no effect) to 100 (complete control), read-out: Pigweed plant response rating): 70%
- pest or weed control at 125 g/ha (pigweed; Amaranthus retroflexus, pre-emergence, 125 g ai/ha, preemergence, scale 0 (no effect) to 100 (complete control), read-out: Pigweed plant response rating): 100%
- pest or weed control at 31 g/ha (pigweed; Amaranthus retroflexus, pre-emergence, Preemergence, 31 g ai/ha, scale 0 to 100, 0 no effect, 100 complete control, read-out: Plant response rating, Pigweed): 45%
- pest or weed control at 16 g/ha (velvetleaf; Abutilon theophrasti, pre-emergence, 16 g ai/ha, preemergence, scale 0 to 100 (0 no effect, 100 complete control), read-out: Velvetleaf plant response rating): 75%
- pest or weed control at 62 g/ha (velvetleaf; Abutilon theophrasti, pre-emergence, 62 g ai/ha, preemergence, scale 0 (no effect) to 100 (complete control), read-out: Velvetleaf plant response rating): 100%
- pest or weed control at 125 g/ha (velvetleaf; Abutilon theophrasti, pre-emergence, 125 g ai/ha, preemergence, scale 0 (no effect) to 100 (complete control), read-out: Velvetleaf plant response rating): 100%
- pest or weed control at 31 g/ha (velvetleaf; Abutilon theophrasti, pre-emergence, Preemergence, 31 g ai/ha, scale 0 to 100, 0 no effect, 100 complete control, read-out: Plant response rating, Velvetleaf): 85%
- pest or weed control at 16 g/ha (galium; Galium, post-emergence, 16 g ai/ha, postemergence, 0 is no effect, 100 is complete control, read-out: Plant response rating (0 to 100), Galium): 50%
- pest or weed control at 125 g/ha (galium; Galium, post-emergence, 125 g ai/ha, postemergence, visual rating, scale 0 to 100 (0 no effect, 100 complete control), read-out: Plant response rating, Galium): 70%
- pest or weed control at 62 g/ha (galium; Galium, post-emergence, Postemergence, 62 g ai/ha, scale 0 to 100 (0 no effect, 100 complete control), read-out: Plant response rating, Galium): 65%
- plant injury at 125 g/ha (corn; Zea mays, post-emergence, 240 h, 125 g ai/ha, read-out: Corn plant response rating): 20%
- Corn plant response rating (crop injury, 0 = no effect, 100 = complete kill) at 500 g/ha (corn; Zea mays, post-emergence, 240 h, 500 g ai/ha): 50%
- plant injury at 16 g/ha (wheat, winter; Triticum aestivum, pre-emergence, 16 g ai/ha, preemergence, scale 0 to 100 (0 no effect, 100 complete control), read-out: Wheat plant response rating): 0%
- plant injury at 62 g/ha (wheat, winter; Triticum aestivum, pre-emergence, 62 g ai/ha, preemergence, scale 0 (no effect) to 100 (complete control), read-out: Wheat plant response rating): 0%
- plant injury at 125 g/ha (wheat, winter; Triticum aestivum, pre-emergence, 125 g ai/ha, preemergence, scale 0 (no effect) to 100 (complete control), read-out: Wheat plant response rating): 0%
- plant injury at 31 g/ha (wheat, winter; Triticum aestivum, pre-emergence, Preemergence, 31 g ai/ha, scale 0 to 100, 0 no effect, 100 complete control, read-out: Plant response rating, Wheat): 0%
- pest or weed control at 16 g/ha (yellow nutsedge; Cyperus, pre-emergence, 16 g ai/ha, preemergence, scale 0 to 100 (0 no effect, 100 complete control), read-out: Nutsedge, Yellow plant response rating): 100%
- pest or weed control at 62 g/ha (yellow nutsedge; Cyperus, pre-emergence, 62 g ai/ha, preemergence, scale 0 (no effect) to 100 (complete control), read-out: Nutsedge, Yellow plant response rating): 15%
- pest or weed control at 125 g/ha (yellow nutsedge; Cyperus, pre-emergence, 125 g ai/ha, preemergence, scale 0 (no effect) to 100 (complete control), read-out: Nutsedge, Yellow plant response rating): 15%
- pest or weed control at 31 g/ha (yellow nutsedge; Cyperus, pre-emergence, Preemergence, 31 g ai/ha, scale 0 to 100, 0 no effect, 100 complete control, read-out: Plant response rating, Nutsedge, Yellow): 0%
- pest or weed control at 16 g/ha (giant foxtail [4]; Setaria faberi, pre-emergence, 16 g ai/ha, preemergence, scale 0 to 100 (0 no effect, 100 complete control), read-out: Foxtail, Giant plant response rating): 5%
- pest or weed control at 62 g/ha (giant foxtail [4]; Setaria faberi, pre-emergence, 62 g ai/ha, preemergence, scale 0 (no effect) to 100 (complete control), read-out: Foxtail, Giant plant response rating): 70%
- pest or weed control at 125 g/ha (giant foxtail [4]; Setaria faberi, pre-emergence, 125 g ai/ha, preemergence, scale 0 (no effect) to 100 (complete control), read-out: Foxtail, Giant plant response rating): 98%
- pest or weed control at 31 g/ha (giant foxtail [4]; Setaria faberi, pre-emergence, Preemergence, 31 g ai/ha, scale 0 to 100, 0 no effect, 100 complete control, read-out: Plant response rating, Foxtail, Giant): 55%
